For the assay, the system named is LNCaP/AR cells. Briefly: Inhibition of proliferation of LNCaP/AR prostate cancer cells (CCK-8). In kind it is cell-based.
[1] abbreviates: 144 h, proliferation of LNCap/AR cells, 6 days, CCK-8, read-out: IC50.
Setting [2] is: proliferation of LNCap/AR cells, 6 days, CCK-8, read-out: IC50.

Like-named read-outs stand apart in the source and are kept apart here.

One may read the IC50 as the point on the concentration scale where inhibition reaches its midpoint. In turn, `Cc1ncsc1-c1ccc([C@H](C)NC(=O)[C@@H]2C[C@@H](O)CN2C(=O)[C@@H](NC(=O)CCN2CC(CC#Cc3ccc4c(c3)CN([C@H]3C(C)(C)[C@H](Oc5ccc(C#N)c(Cl)c5)C3(C)C)C4=O)C2)C(C)(C)C)cc1` [Compound 44] gave an IC50 (LNCaP/AR, 144 h) of 100 to 500 nM.

Turning to `CC1(C)[C@H](Oc2ccc(C#N)c(Cl)c2)C(C)(C)[C@H]1N1Cc2cc(C#Cc3cnn(C4CN(c5cc6c(cc5F)C(=O)N(C5CCC(=O)NC5=O)C6=O)C4)c3)ccc2C1=O` (stereo partly shown) [Compound 45], the IC50 under setting [1] was greater than 1000 nM.

Regarding `CC1(C)[C@H](Oc2ccc(C#N)c(Cl)c2)C(C)(C)[C@H]1N1Cc2cc(C#CC3CCN(C4CCN(c5ccc6c(c5)C(=O)N(C5CCC(=O)NC5=O)C6=O)CC4)CC3)ccc2C1=O` (stereo partly shown) [Compound 52], the IC50 under setting [1] was 100 to 500 nM.

With `CC1(C)[C@H](Oc2ccc(C#N)c(Cl)c2)C(C)(C)[C@H]1N1Cc2cc(C#CC3CCN(C4CN(c5ccc6c(c5)C(=O)N(C5CCC(=O)NC5=O)C6=O)C4)CC3)ccc2C1=O` (stereo partly shown) [Compound 53, 2-chloro-4-((1r,3r)-3-(5-((1-(I-(2-(2,6-dioxopiperidin-3-yl)-1,3-dioxoisoindolin-5-yl)azelaic acid-3-yl)piperidin-4-yl)ethynyl)-1-oxoisoindolin-2-yl)-2,2,4,4-tetramethylcyclobutoxy)benzonitrile], the IC50 under setting [1] is 100 to 500 nM.

As for `CC1(C)C(Oc2ccc(C#N)c(Cl)c2)C(C)(C)C1N1Cc2nc(N3CCC(CN4CCN(c5ccc6c(c5)C(=O)N([C@@H]5CCC(=O)NC5=O)C6=O)CC4)CC3)ccc2C1=O` (stereo partly shown) [Compound 202, 2-chloro-4-((1r,3r)-3-(2-(4-((4-(2,6-dioxopiperidin-3-yl-1,3-dioxoisoindolin-5-yl)piperazin-1-yl)methyl)piperidin-1-yl)-5-oxo-5,7-dihydro-6H-pyrrolo[3,4-b]pyridin-6-yl)-2,2,4,4-tetramethylcyclobutoxy)benzonitrile], the IC50 under setting [2] fell in the range of 100 to 500 nM.

In the case of `[2H]C([2H])([2H])N(C(=O)c1ccc(N2CCC(CN3CCN(c4cc5c(cc4F)C(=O)N(C4CCC(=O)NC4=O)C5)CC3)CC2)nc1)[C@H]1CC[C@H](Oc2ccc(C#N)c(Cl)c2)CC1` (stereo partly shown) [Compound 305, N-((1r,4r)-4-(3-chloro-4-cyanophenoxy)cyclohexyl)-6-(4-((4-(2-(2,6-dioxopiperidin-3-yl)-6-fluoro-1-oxoisoindol-5-yl)piperazin-1-yl)methyl)piperidin-1-yl)-N-deuteromethylnicotinamide], the IC50 under setting [1] is 500 to 1000 nM.

Regarding `[2H]C([2H])([2H])N(C(=O)c1ccc(N2CCC(CN3CCN(c4cc5c(cc4F)CN(C4CCC(=O)NC4=O)C5=O)CC3)CC2)nc1)[C@H]1CC[C@H](Oc2ccc(C#N)c(Cl)c2)CC1` (stereo partly shown) [Compound 306, N-((1r,4r)-4-(3-chloro-4-cyanophenoxy)cyclohexyl)-6-(4-((4-(2-(2,6-dioxopiperidin-3-yl)-6-fluoro-3-oxoisoindol-5-yl)piperazin-1-yl)methyl)piperidin-1-yl)-N-deuteromethylnicotinamide], the IC50 under setting [1] was greater than 1000 nM.

As for `CN1C(=O)CCC(N2Cc3cc(F)c(N4CCN(CC5CCN(c6ccc7c(n6)CN(C6CCC(Oc8ccc(C#N)c(Cl)c8)CC6)C7=O)CC5)CC4)cc3C2=O)C1=O` (stereo not shown) [Compound 307, 2-chloro-4-((1r,4r)-4-(2-(4-((4-(6-fluoro-2-(1-methyl-2,6-dioxopiperidin-3-yl)-3-oxoisoindolin-5-yl)piperazin-1-yl)methyl)piperidin-1-yl)-5-oxo-5H-pyrrolo[3,4-b]pyridin-6(7H)-yl)cyclohexyl)oxy)benzonitrile], the IC50 under setting [2] fell in the range of 500 to 1000 nM.

Consider `CC1(C)[C@H](Oc2ccc(C#N)c(Cl)c2)C(C)(C)[C@H]1N1Cc2cc(C#Cc3cnn(C4CN(c5cc6c(cc5F)C(=O)N(C5CCC(=O)NC5=O)C6=O)C4)c3)ccc2C1=O` (stereo partly shown) [Compound 310, 2-chloro-4-((1r,3r)-3-(5-((1-(1-(2-(2,6-dioxopiperidin-3-yl)-6-fluoro-1,3-dioxoisoindolin-5-yl)azetidine-3-yl)-1H-pyrazol-4-yl)ethynyl)-1-oxoisoindolin-2-yl)-2,2,4,4-tetramethylcyclobutoxy)benzonitrile], for which the IC50 under setting [2] is greater than 1000 nM.

Take `N#Cc1ccc(O[C@H]2CC[C@H](N3Cc4cc(N5CCC(CN6CCN(c7cc8c(cc7F)C(=O)N(C7CCC(=O)NC7=O)C8=O)CC6)CC5)ncc4C3=O)CC2)cc1Cl` (stereo partly shown) [Compound 311]: the IC50 (LNCaP/AR, 144 h) is greater than 1000 nM.

`N#Cc1ccc(O[C@H]2CC[C@H](N3Cc4cc(N5CCC(CN6CCN(c7ccc8c(c7)CN(C7CCC(=O)NC7=O)C8=O)CC6)CC5)ncc4C3=O)CC2)cc1Cl` (stereo partly shown) [Compound 312]: under setting [1], the IC50 lay in the range of 100 to 500 nM.

On to `N#Cc1ccc(O[C@H]2CC[C@H](N3Cc4cc(N5CCC(CN6CCN(c7cc8c(cc7F)C(=O)N(C7CCC(=O)NC7=O)C8)CC6)CC5)ncc4C3=O)CC2)cc1Cl` (stereo partly shown) [Compound 313], for which the IC50 under setting [1] was less than 100 nM.

For `[2H]C1([2H])c2cc(C#CCCCOCC(=O)N[C@H](C(=O)N3C[C@H](O)C[C@H]3C(=O)N[C@@H](C)c3ccc(-c4scnc4C)cc3)C(C)(C)C)ccc2C(=O)N1[C@H]1C(C)(C)[C@H](Oc2ccc(C#N)c(Cl)c2)C1(C)C` [Compound 403], under setting [1], the IC50 is less than 100 nM.

In the case of `Cc1ncsc1-c1ccc([C@H](C)NC(=O)[C@@H]2C[C@@H](O)CN2C(=O)[C@@H](NC(=O)COCCCCC#Cc2ccc(C(=O)N[C@H]3C(C)(C)[C@H](Oc4ccc(C#N)c(Br)c4)C3(C)C)cc2)C(C)(C)C)cc1` [Compound 404], the IC50 under setting [1] was less than 100 nM.

For the compound `Cc1ncsc1-c1ccc([C@H](C)NC(=O)[C@@H]2C[C@@H](O)CN2C(=O)[C@@H](NC(=O)COCCCCCCc2ccc3c(c2)CN([C@H]2C(C)(C)[C@H](Oc4ccc(C#N)c(Cl)c4)C2(C)C)C3=O)C(C)(C)C)cc1` [Compound 408, (2S,4R)-1-((S)-2-(2-((6-(2-((1r,3r)-3-(3-chloro-4-cyanophenoxy)-2,2,4,4-tetramethylcyclobutyl)-1-oxoisoindolin-5-yl)hexyl)oxy)acetamide)-3,3-dimethylbutyryl)-4-hydroxy-N-((S)-1-(4-(4-methylthiazol-5-yl)phenyl)ethyl) pyrrolidine-2-carboxamide], under setting [1], the IC50 fell in the range of 100 to 500 nM.

As for `Cc1ncsc1-c1ccc([C@H](C)NC(=O)[C@@H]2C[C@@H](O)CN2C(=O)[C@@H](NC(=O)COCC2CCN(c3ccc4c(c3)CN([C@H]3C(C)(C)[C@H](Oc5ccc(C#N)c(Cl)c5)C3(C)C)C4=O)CC2)C(C)(C)C)cc1` [Compound 409], the IC50 under setting [1] is less than 100 nM.

As to `CC(=O)O[C@@H]1C[C@@H](C(=O)N[C@@H](C)c2ccc(-c3scnc3C)cc2)N(C(=O)[C@@H](NC(=O)COCC2CCN(c3ccc4c(c3)CN([C@H]3C(C)(C)[C@H](Oc5ccc(C#N)c(Cl)c5)C3(C)C)C4=O)CC2)C(C)(C)C)C1` [Compound 410], the IC50 under setting [1] is less than 100 nM.

For `Cc1ncsc1-c1ccc([C@H](C)NC(=O)[C@@H]2C[C@@H](O)CN2C(=O)[C@@H](NC(=O)COCCCCCNc2ccc3c(c2)CN([C@H]2C(C)(C)[C@H](Oc4ccc(C#N)c(Cl)c4)C2(C)C)C3=O)C(C)(C)C)cc1` [Compound 411], the IC50 under setting [1] was less than 100 nM.

Regarding `CC(=O)O[C@@H]1C[C@@H](C(=O)N[C@@H](C)c2ccc(-c3scnc3C)cc2)N(C(=O)[C@@H](NC(=O)COCCCCCNc2ccc3c(c2)CN([C@H]2C(C)(C)[C@H](Oc4ccc(C#N)c(Cl)c4)C2(C)C)C3=O)C(C)(C)C)C1` [Compound 412], under setting [1], the IC50 was less than 100 nM.

Regarding `Cc1ncsc1-c1ccc([C@H](C)NC(=O)[C@@H]2C[C@@H](O)CN2C(=O)[C@@H](NC(=O)COCCCCCNc2ccc3c(c2)CN([C@H]2C(C)(C)[C@H](Oc4ccc(C#N)c(Br)c4)C2(C)C)C3=O)C(C)(C)C)cc1` [Compound 433, (2S,4R)-1-((S)-2-(2-((5-((2-((1r,3r)-3-(3-bromo-4-cyanophenoxy)-2,2,4,4-tetramethylcyclobutyl)-1-oxoisoindolin-5-yl)amino)pentyl)oxy)acetylamino)-3,3-dimethylbutyryl)-4-hydroxy-N-((S)-1-(4-(4-methylthiazole5-yl)phenyl)ethyl) pyrrolidinyl-2-carboxamide], the IC50 under setting [1] was greater than 1000 nM.

As for “(2R,4R)-1-((S)-2-(2-((1-(3-(2-((1r,3r)-3-(3-chloro-4-cyanophenoxy)-2,2,4,4-tetramethylcyclobutyl)-1-oxoisoindolin-5-yl)prop-2-yn-1-yl)azetidine-3-yl)oxy) acetylamino)-3,3-dimethylbutyryl)-4-hydroxy-N-((S)-1-(4-(4-(4-methylthiazol-5-yl)phenyl)ethyl)pyrrolidine-2-carboxamide [Compound 40]”, under setting [2], the IC50 is 100 to 500 nM.

Take “(2R,4R)-1-((S)-2-(2-((5-((4-((1r,3r)-3-(4-(4H-1,2,4-triazol-1-yl)phenoxy)-2,2,4,4-tetramethylcyclobutyl)carbamoyl)phenyl)amino)pentyl)oxy)acetamide)-3,3-dimethylbutyryl)-4-hydroxy-N-((S)-1-(4-(4-methylthiazol-5-yl)phenyl)ethyl) pyrrolidine-2-carboxamide [Compound 405]”: under setting [2], the IC50 was greater than 1000 nM.

Take “(2R,4R)-1-((S)-2-(2-((6-(4-(((1r,3r)-3-(3-chloro-4-cyanophenoxy)-2,2,4,4-tetramethylcyclobutyl)(methoxy)benzamido)hex-5-yn-1-)oxy)acetamido)-3,3-dimethylbutyryl)-4-hydroxy-N-((S)-1-(4-(4-methylthiazol-5-)phenyl)ethyl) tetrahydropyrrole-2-amide [Compound 435]”: under setting [2], the IC50 lay within 500 to 1000 nM.

On to “(2S,4R)-1-((S)-2-(2-((2-((5-(1r,3r)-3-(3-chloro-4-cyanophenoxy)-2,2,4,4-tetramethylcyclobutyl)-1-oxoisoindolin-5-yl)oxy)pentyl)oxy)acetamide)-3,3-dimethylbutyryl)-4-hydroxy-N-((S)-1-(4-(4-methylthiazol-5-yl)phenyl)ethyl) pyrrolidine-2-carboxamide [Compound 406]”, for which the IC50 under setting [2] fell in the range of 100 to 500 nM.

For the compound “(2S,4R)-1-((S)-2-(3-((4-(2-((1r,3r)-3-(3-chloro-4-cyanophenoxy)-2,2,4,4-tetramethylcyclobutyl)-1-oxoisoindolin-5-yl)3-butynoxy)propylamino)-3,3-dimethylbutanol)-4-hydroxy-N-(S)-1-(4-(4-methylthiazole)phenyl)ethyl) formamide [Compound 34]”, the IC50 under setting [2] is less than 100 nM.

For the origin of these results see US20230091225A1, “Bifunctional chimeric heterocyclic compounds for targeted degradation of androgen receptors and use thereof” (HINOVA PHARMACEUTICALS INC., priority 2019, published 2023).
